Data on 17 molecules can be found in US20160151380A1, “THERAPIES FOR DISEASES CAUSED BY ARTHROPOD-BORNE PARASITES” (THE REGENTS OF THE UNIVERSITY OF CALIFORNIA, priority 2013, published 2016).

The target of one data set is JNK1 (Homo sapiens, UniProt P45983). As to conditions: cited from earlier work.
In the next data set the target is JNK3 (Homo sapiens, UniProt P53779). As to conditions: cited from earlier work.
The target in a further data set is MAPK14 p38 (Homo sapiens, UniProt Q16539). To be noted: cited from earlier work.
The target in a further data set is T1, PKCepsilon (Homo sapiens, UniProt Q02156).
T1 sequence (Q02156 1-737): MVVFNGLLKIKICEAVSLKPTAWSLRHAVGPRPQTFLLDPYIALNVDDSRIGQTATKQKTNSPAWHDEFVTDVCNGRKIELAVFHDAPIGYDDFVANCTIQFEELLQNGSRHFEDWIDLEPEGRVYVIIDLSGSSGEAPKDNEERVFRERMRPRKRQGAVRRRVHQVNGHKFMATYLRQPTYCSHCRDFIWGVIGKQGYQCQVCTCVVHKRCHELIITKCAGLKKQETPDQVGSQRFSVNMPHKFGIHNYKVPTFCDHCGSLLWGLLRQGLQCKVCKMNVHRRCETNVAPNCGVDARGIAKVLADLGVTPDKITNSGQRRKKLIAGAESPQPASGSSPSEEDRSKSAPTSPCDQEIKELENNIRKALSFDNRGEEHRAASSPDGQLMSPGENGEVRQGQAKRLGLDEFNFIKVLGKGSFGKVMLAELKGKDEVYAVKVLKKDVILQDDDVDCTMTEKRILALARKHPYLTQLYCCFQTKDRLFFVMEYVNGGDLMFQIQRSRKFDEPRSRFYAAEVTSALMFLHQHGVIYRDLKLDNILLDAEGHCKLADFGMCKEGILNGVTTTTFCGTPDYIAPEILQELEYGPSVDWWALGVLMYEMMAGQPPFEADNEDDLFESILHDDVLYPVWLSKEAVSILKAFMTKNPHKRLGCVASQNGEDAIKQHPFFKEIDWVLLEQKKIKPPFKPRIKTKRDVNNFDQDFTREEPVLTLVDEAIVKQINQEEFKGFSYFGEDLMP
To be noted: PKCepsilon; cited from earlier work.

Data set [1] relates to Plasmodium falciparum. The experiment in a line: P. falciparum growth in vitro (flow cytometry). It counts as cell-based. To be noted: 1 μM or 10 μM, 48 h, relative to vehicle control.
Another data set deals with anti-parasite genes. The data set can be described thus: Midgut expression of anti-parasite/immune genes in A. stephensi (quantitative PCR). To be noted: fed killed lysate of P. falciparum with BIRB 796; 6 h post-feeding. It counts as in vivo, Anopheles stephensi.
The subject of data set [2] is Anopheles stephensi p38 MAPK. The data set can be described thus: MK2 phosphorylation in LPS-stimulated ASE cells (western blot). It counts as cell-based. As to conditions: ASE cells pre-incubated with 10 μM inhibitor, 2 h later 1 μg/ml LPS. On the technique in general: A western blot detects proteins with antibodies after separation by electrophoresis.
The test system of data set [3] is Plasmodium falciparum. The experiment in a line: P. falciparum development in A. stephensi after supplemented bloodmeal (oocysts). Type of data set: in vivo. To be noted: 10 μM in bloodmeal. How it is done: Midguts were dissected and oocysts were counted at 10 days following infection. Dots in FIG. 3A and FIG. 3C represent oocyst numbers in one midgut, while percentage positive midguts or percentage of midguts with at least one oocyst are represented as means in FIG. 3B and FIG. 3D. Mean oocysts per midgut (lines, numbers on graph) were analyzed by ANOVA (alpha=0.05) for overall significance and by Student-Neuman-Keuls for pairwise comparisons using Graphpad Prism version 4.0 (San Diego, Calif.). Prevalences of mosquito infection (indicated on graph) were analyzed by chi-square (alpha=0.05).

The next data set has as its system A. stephensi. The experiment in a line: Mosquito lifespan, A. stephensi. Type of data set: in vivo, Anopheles stephensi. To be noted: 1 μM or 10 μM daily in water or once weekly via bloodmeal.
For the next data set, the system named is A. freeborni. The data set can be described thus: Mosquito lifespan, A. freeborni. It counts as in vivo. As to conditions: 1 μM or 10 μM daily in water or once weekly via bloodmeal.

pIC50, pKd, pKi: −log10 of the molar value. “Also recorded” adds a separate entry of the source.

Sequence of MAPK14 p38 (Q16539 whole entry): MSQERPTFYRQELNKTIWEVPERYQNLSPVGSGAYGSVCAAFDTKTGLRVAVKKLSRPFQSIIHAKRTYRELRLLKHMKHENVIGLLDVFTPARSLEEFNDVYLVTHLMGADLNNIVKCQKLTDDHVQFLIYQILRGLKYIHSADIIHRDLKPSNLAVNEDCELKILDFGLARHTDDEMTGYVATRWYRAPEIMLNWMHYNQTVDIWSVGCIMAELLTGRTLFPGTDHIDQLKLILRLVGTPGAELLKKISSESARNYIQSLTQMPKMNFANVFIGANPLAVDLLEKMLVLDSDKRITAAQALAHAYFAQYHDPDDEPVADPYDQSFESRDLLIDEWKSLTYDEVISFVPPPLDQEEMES
Sequence of JNK1 (P45983 whole entry, species assumed): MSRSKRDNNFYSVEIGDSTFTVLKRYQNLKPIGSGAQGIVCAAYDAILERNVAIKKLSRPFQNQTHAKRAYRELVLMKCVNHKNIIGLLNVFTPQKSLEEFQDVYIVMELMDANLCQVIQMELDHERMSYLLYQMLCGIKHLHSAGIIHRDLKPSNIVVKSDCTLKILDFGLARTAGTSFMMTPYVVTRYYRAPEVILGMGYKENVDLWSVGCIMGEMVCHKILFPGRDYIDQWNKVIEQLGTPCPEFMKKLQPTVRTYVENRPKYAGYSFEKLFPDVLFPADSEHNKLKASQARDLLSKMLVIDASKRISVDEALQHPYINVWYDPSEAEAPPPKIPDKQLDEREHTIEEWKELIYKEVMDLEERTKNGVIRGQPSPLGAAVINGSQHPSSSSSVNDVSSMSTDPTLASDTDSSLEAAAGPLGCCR
Sequence of JNK3 (P53779 whole entry, species assumed): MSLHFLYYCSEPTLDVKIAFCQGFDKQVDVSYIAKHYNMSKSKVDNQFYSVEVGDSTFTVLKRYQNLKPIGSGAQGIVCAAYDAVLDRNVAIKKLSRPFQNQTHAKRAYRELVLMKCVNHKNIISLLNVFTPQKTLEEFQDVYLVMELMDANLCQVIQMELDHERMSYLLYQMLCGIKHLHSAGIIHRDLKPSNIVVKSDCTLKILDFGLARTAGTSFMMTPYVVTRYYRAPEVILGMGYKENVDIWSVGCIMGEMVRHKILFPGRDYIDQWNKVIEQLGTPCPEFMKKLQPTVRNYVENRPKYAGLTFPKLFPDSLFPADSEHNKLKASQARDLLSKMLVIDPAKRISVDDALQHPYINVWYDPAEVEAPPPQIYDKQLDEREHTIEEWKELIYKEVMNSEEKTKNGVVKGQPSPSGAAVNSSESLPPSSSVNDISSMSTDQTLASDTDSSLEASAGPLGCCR

With `Cc1n[nH]c2ccc(-c3cncc(OC[C@@H](N)Cc4c[nH]c5ccccc45)c3)cc12` [A 443654], the pIC50 on JNK1 and on JNK3 was < 6.05 throughout.

`Cc1ccc(C(=O)Nc2cccc(C(F)(F)F)c2)cc1-c1ccc2nc(NCCN3CCOCC3)ncc2c1` [AMG-47a]: the results for the pIC50 at MAPK14 p38 and at JNK3 were 8.52 and 6.84, respectively.

Consider `O=C(Nc1c[nH]nc1-c1nc2cc(CN3CCOCC3)ccc2[nH]1)NC1CC1` [AT9283], for which the pIC50 at PKCepsilon, on MAPK14 p38, on JNK1 and at JNK3 was < 7.00 in each case.

`Cc1ccc(-n2nc(C(C)(C)C)cc2NC(=O)Nc2ccc(OCCN3CCOCC3)c3ccccc23)cc1` [BIRB 796, 1-[5-tert-butyl-2-(4-methylphenyl)pyrazol-3-yl]-3-[4-(2-morpholin-4-ylethoxy)naphthalen-1-yl]urea]: the “P. falciparum growth in vitro (parasitemia)” value in the data set on Plasmodium falciparum [1] is listed as “Neither inhibitor significantly altered parasite growth; also recorded: no activity”. For the same molecule, the “immune gene expression levels in midgut” value in the data set with anti-parasite genes was “significantly different from controls”.

As to `COc1cc(N2CCOCC2)ccc1Nc1ncc(F)c(Nc2ccccc2NS(C)(=O)=O)n1` [CZC-25146], the pIC50 at JNK1 and at JNK3 was > 6.22 each time.

As for `COc1ccc(N(C(=O)Nc2c(C)cccc2C)c2cc(Nc3ccc(N4CCN(C)CC4)cc3)ncn2)c(OC)c1` [HG-9-91-01], the figures for the pIC50 at MAPK14 p38 and at JNK3 were > 6.22 and > 6.10, respectively.

On to `CCS(=O)(=O)Nc1ccc2c(c1)/C(=C(/Nc1ccc(CN3CCCCC3)cc1)c1ccccc1)C(=O)N2` [Hesperadin], for which the pKd at JNK1 and on JNK3 was > 8.00 throughout.

`CCCC(=O)NC1=NC2C(N=CN2C2OC3OP(=O)(O)OC3C2OC(=O)CCC)C(=O)N1` (stereo not drawn) [Kinome_3027]: the negative-log Ki (pKi) (commonly the negative decadic logarithm of the Ki, by convention in mol/L) was 9.00 at JNK1 and 7.74 on JNK3.

As to `O=C(O)[C@]1(Cc2cccc(Nc3nccs3)n2)CC[C@@H](Oc2cccc(Cl)c2F)CC1` [MK5108], the pIC50 – broadly, the negative decadic logarithm of the IC50, by convention in mol/L – on PKCepsilon is < 6.00; on JNK1, < 6.00; at JNK3 it was < 7.00.

In the case of `C[S+]([O-])c1ccc(-c2nc(-c3ccc(F)cc3)c(-c3ccncc3)[nH]2)cc1` (stereo not drawn) [SB203580, 4-[4-(4-fluorophenyl)-2-(4-methylsulfinylphenyl)-1H-imidazol-5-yl]pyridine], the p-MK2 levels entry in data set [2] is listed as “undetectable”. Moreover, the “P. falciparum growth in vitro (parasitemia)” value in the data set on Plasmodium falciparum [1] is “Neither inhibitor significantly altered parasite growth; also recorded: no such effects”. The infection prevalence entry in the data set on Plasmodium falciparum [3] (10 days) is given as “significantly reduced”. The P. falciparum oocysts/midgut result with Plasmodium falciparum [3] (oocysts counted at 10 days) is listed as “significantly reduced”. Besides, in the data set on mosquito p38 MAPK, the “p38 MAPK activity in the mosquito in vivo” value is recorded as “significantly reduced”.

For the molecule `Oc1c2ccccc2c2c3c(cccc13)N=N2` [SP600125], the impact on lifespan entry in the data set with A. stephensi and in the data set on A. freeborni was “no negative impact” throughout.

For `O=C(O)c1ccc2c(c1)nc(Nc1cccc(Cl)c1)c1ccncc12` [Silmitasertib], the negative-log IC50 (pIC50) at JNK1 and at JNK3 was < 6.00 in each case.

For the molecule `O=C1NCc2c1c1c3ccccc3[nH]c1c1[nH]c3ccccc3c21` [Staurosporine aglycone], the pIC50 at JNK1 and on JNK3 was > 7.00 each time.

Regarding `CCOC(=O)Cn1nc(C(F)F)cc1C` [SureCN7018367], the negative-log Kd (pKd) – broadly, the Kd on a negative log10 scale, so that one unit is a factor of ten – on JNK1 was > 5.90; at JNK3, > 8.00.

For `CNC(=O)[C@@]1(N)C[C@H]2O[C@]1(C)n1c3ccccc3c3c4c(c5c6ccccc6n2c5c31)C(=O)NC4` [TTT-3002], the pIC50 on JNK1 was > 7.40; on JNK3 it was > 7.22.

As for `C=CC(=O)Nc1cccc(Oc2nc(Nc3ccc(N4CCN(C)CC4)cc3)ncc2Cl)c1` [WZ3146], the negative logarithm of the Kd (pKd) at PKCepsilon, at JNK1 and at JNK3 was < 6.00 in each case.

Take `C=CC(=O)Nc1cccc(Oc2nc(Nc3ccc(N4CCN(C)CC4)cc3OC)ncc2Cl)c1` [WZ4002]: the negative logarithm of the Kd (pKd) at PKCepsilon, on JNK1 and on JNK3 was < 6.00 throughout.
